Test results: ChEMBL document CHEMBL1137642, “Growth and drug resistance phenotypes resulting from cytomegalovirus DNA polymerase region III mutations observed in clinical specimens” (Antimicrob Agents Chemother, 2007)

Assays:
Human betaherpesvirus 5 [1] = experiment: Antiviral activity against Cytomegalovirus CMV T2798 with pol T813S UL97 C592G double mutant infected in HFF cells by SEAP reporter gene assay; format: functional, organism-based; conditions: Human betaherpesvirus 5, T2798, HFF
Human betaherpesvirus 5 [2] = experiment: Antiviral activity against Cytomegalovirus CMV T2784 with pol A809V UL97 C592G double mutant infected in HFF cells by SEAP reporter gene assay; format: functional, organism-based; conditions: Human betaherpesvirus 5, T2784, HFF
Human betaherpesvirus 5 [3] = experiment: Antiviral activity against Cytomegalovirus CMV T2417 with pol A809V mutant infected in HFF cells by SEAP reporter gene assay; format: functional, organism-based; conditions: Human betaherpesvirus 5, T2417, HFF
Human betaherpesvirus 5 [4] = experiment: Antiviral activity against Cytomegalovirus CMV T2420 with pol G841A mutant infected in HFF cells by SEAP reporter gene assay; format: functional, organism-based; conditions: Human betaherpesvirus 5, T2420, HFF
Human betaherpesvirus 5 [5] = experiment: Antiviral activity against Cytomegalovirus CMV 2817 with pol G841A UL97 C592G double mutant infected in HFF cells by SEAP reporter gene assay; format: functional, organism-based; conditions: Human betaherpesvirus 5, T2817, HFF
Human betaherpesvirus 5 [6] = experiment: Antiviral activity against Cytomegalovirus CMV T2211 infected in HFF cells by SEAP reporter gene assay; format: functional, organism-based; conditions: Human betaherpesvirus 5, T2211, HFF
Human betaherpesvirus 5 [7] = experiment: Antiviral activity against Cytomegalovirus CMV T2542 with pol T813S mutant infected in HFF cells by SEAP reporter gene assay; format: functional, organism-based; conditions: Human betaherpesvirus 5, T2542, HFF
Human betaherpesvirus 5 [8] = experiment: Drug resistance, ratio of EC50 for Cytomegalovirus CMV T2417 pol A809V mutant to EC50 for Cytomegalovirus CMV T2211 by plaque reduction assay; format: functional
Human betaherpesvirus 5 [9] = experiment: Antiviral activity against Cytomegalovirus CMV T2258 with UL97 C592G mutant infected in HFF cells by SEAP reporter gene assay; format: functional, organism-based; conditions: Human betaherpesvirus 5, T2258, HFF
Human betaherpesvirus 5 [10] = experiment: Drug resistance, ratio of EC50 for Cytomegalovirus CMV […] pol T813S mutant to EC50 for Cytomegalovirus CMV T2211 by SEAP reporter gene assay; format: functional
Human betaherpesvirus 5 [11] = experiment: Drug resistance, ratio of EC50 for Cytomegalovirus CMV T2420 pol G841A mutant to EC50 for Cytomegalovirus CMV T2211 by SEAP reporter gene assay; format: functional
Human betaherpesvirus 5 [12] = experiment: Drug resistance, ratio of EC50 for Cytomegalovirus CMV T2417 pol A809V mutant to EC50 for Cytomegalovirus CMV T2211 by SEAP reporter gene assay; format: functional
Human betaherpesvirus 5 [13] = experiment: Drug resistance, ratio of EC50 for Cytomegalovirus CMV T2784 with pol A809V UL97 C592G double mutant to EC50 for Cytomegalovirus CMV T2211 by SEAP reporter gene assay; format: functional
Human betaherpesvirus 5 [14] = experiment: Drug resistance, ratio of EC50 for Cytomegalovirus CMV pol A384P mutant to EC50 for Cytomegalovirus CMV T2211 by SEAP reporter gene assay; format: functional
Human betaherpesvirus 5 [15] = experiment: Drug resistance, ratio of EC50 for Cytomegalovirus CMV T2817 with pol G841A UL97 C592G double mutant to EC50 for Cytomegalovirus CMV T2211 by SEAP reporter gene assay; format: functional
Human betaherpesvirus 5 [16] = experiment: Drug resistance, ratio of EC50 for Cytomegalovirus CMV T2798 with pol T813S UL97 C592G double mutant to EC50 for Cytomegalovirus CMV T2211 by SEAP reporter gene assay; format: functional
Human betaherpesvirus 5 [17] = experiment: Drug resistance, ratio of EC50 for Cytomegalovirus CMV pol T821I mutant to EC50 for Cytomegalovirus CMV T2211 by SEAP reporter gene assay; format: functional

Compound	EC50 (Human betaherpesvirus 5 [1]) [µM]	EC50 (Human betaherpesvirus 5 [2]) [µM]	EC50 (Human betaherpesvirus 5 [3]) [µM]	EC50 (Human betaherpesvirus 5 [4]) [µM]	EC50 (Human betaherpesvirus 5 [5]) [µM]	EC50 (Human betaherpesvirus 5 [6]) [µM]	EC50 (Human betaherpesvirus 5 [7]) [µM]	fold change (FC) (Human betaherpesvirus 5 [8])	EC50 (Human betaherpesvirus 5 [9]) [µM]	fold change (FC) (Human betaherpesvirus 5 [10])	fold change (FC) (Human betaherpesvirus 5 [11])	fold change (FC) (Human betaherpesvirus 5 [12])	fold change (FC) (Human betaherpesvirus 5 [13])	fold change (FC) (Human betaherpesvirus 5 [14])	fold change (FC) (Human betaherpesvirus 5 [15])	fold change (FC) (Human betaherpesvirus 5 [16])	fold change (FC) (Human betaherpesvirus 5 [17])
Nc1ccn(C[C@@H](CO)OCP(=O)(O)O)c(=O)n1.O.O [CIDOFOVIR]	0.37	0.45	0.42	0.58	0.67	0.22	0.6	1.6	0.27								
O=C(O)P(=O)(O)O [FOSCARNET]	204	137	137	176	213	41	199	6.3	44	3	3	3					
Nc1nc2c(ncn2COC(CO)CO)c(=O)[nH]1 [GANCICLOVIR]	6.6	6.1	2.6	3.5	8.4	1.1	2.7	2.6	3.9				2	5	2	2	5
